Measured values reported in patent US10201556B2, “Combination for use in treating diseases or conditions associated with melanoma, or treating diseases or conditions associated with activated B-raf pathway” (InteRNA Technologies B.V., priority 2012, dated 2019).

What was measured:
[1] = system: SKMEL-57 melanoma cell line; assay: Anti-proliferative effect of small molecules, MTS assay; type: cell-based; details: SKMEL-57, vemurafenib sensitive
Procedure: (§1) The anti-proliferative effect of small molecules in melanoma cell lines was determined with V600E BRAF inhibitor, vemurafenib (PLX-4032, 51267, Selleck) and MEK inhibitor, selumetinib (AZD-6244, S1008, Selleck). For each cell line optimal growth conditions were determined prior to the experiment. Cells were plated in a 96-well plate at 3000 cells per well (100 uL) and were grown at 37 C, 5% CO2. Small molecule mix (50 uL per well) was made for each concentration in medium. Cells were treated in triplicate 24 hours after plating. After 72 hours medium was replaced and viability was measured with the MTS assay (Promega) according to manufacturer's instructions. Cell viability inhibition is normalized against loading control (0.1% DMSO) and GraphPad Prism was used to fit the curve and calculate GI50 values.
A375 cells were obtained from the Hubrecht Institute (Utrecht, The Netherlands); SKMEL-28, A2058 and RPMI-7951 were from the ATCC; SKMEL-57 was a gift from Dr. Patricia Groenen (Radboud University Nijmegen Medical Centre, The Netherlands); for cell line characteristics of M249, M249-AR4, M233 and M376 see (Atefi et al. 2011). A375-R, with in vitro acquired resistance to vemurafenib, was established in our lab by clonal selection of cells continually exposed to 1 μM vemurafenib. A375, A375-R, SKMEL-28, A2058 and SKMEL-57 were grown in DMEM GlutaMAX™-I (Gibco®), all other cell lines in RPMI-1640 (Gibco®). Media was supplemented with 10% FBS (Sigma), and cells were maintained in a humidified 37° C. incubator (Thermo Scientific) with 5% CO2. Vemurafenib (PLX4032; Selleck Chemicals) was diluted in DMSO to a stock concentration of 10 mM.

M376 melanoma cell line = details: M376; value marked with footnote 1) Atefi M. et al.; cited from earlier work
M233 melanoma cell line = details: M233; value marked with footnote 1) Atefi M. et al.; cited from earlier work
[2] = system: A375Hu-R1 (vemurafenib resistant clone of A375Hu); assay: Anti-proliferative effect of small molecules, MTS assay; type: cell-based; details: Homo sapiens, A375Hu-R1 (A375-R), in vitro acquired resistance, 72 hours
Procedure: as §1
The A375Hu melanoma cell line was used to make a vemurafenib (PLX-4032) resistant sub line. A375Hu cells were plated at low density in 96-well plates and exposed to 1 uM PLX-4032. Cell growth was monitored until clonal growth was observed. Wells with clonal growth (approximately 5%) were replated in a 96-well plate and exposed to 1 uM PLX-4032. The 10 best growing clones were replated in 6-well plates in 1 uM PLX-4032 and the three best growing clones were used for further culturing. Clone number 1 (A375Hu-R1) grew best with 1 uM PLX-4032 and was chosen for additional experiments.

[3] = system: RPMI-7951 melanoma cell line; assay: as above; type: cell-based; details: Homo sapiens; RPMI-7951, intrinsic resistance; 72 hours, MTS
Procedure: as §1

A2058 melanoma cell line = assay: as above; type: cell-based; details: Homo sapiens, A2058, intrinsic resistance, 72 hours
Procedure: as §1

M249 melanoma cell line = assay: as above; type: cell-based; details: M249, 72 h, M249, vemurafenib sensitive
Procedure: as §1

[4] = system: M249-R4 melanoma cell line; assay: as above; type: cell-based; details: M249-R4 (M249-AR4), in vitro acquired resistance, 72 hours
Procedure: as §1

[5] = system: A375Hu melanoma cell line; assay: as above; type: cell-based; details: Homo sapiens, A-375, 72 h, A375Hu (A375), vemurafenib sensitive
Procedure: as §1

- GI50 [1]: 700 nM
- GI50 [2]: > 10000 nM
- GI50 [3]: > 10000 nM
- GI50 (A2058 melanoma cell line): > 10000 nM
- GI50 (M249 melanoma cell line): 100 nM
- GI50 [4]: 2910 nM
- GI50 [5]: 50 nM
SMILES: Cn1cnc2c(F)c(Nc3ccc(Br)cc3Cl)c(C(=O)NOCCO)cc21 [Selumetinib, 6-(4-bromo-2-chlorophenylamino)-7-fluoro-N-(2-hydroxyethoxy)-3-methyl-3H-benzo[d]imidazole-5-carboxamide]
- GI50 (M376 melanoma cell line): 1000 nM
- GI50 (M233 melanoma cell line): > 10000 nM
